Assay results reported in US10709724B2, “Methods of treating mitochondrial dysfunction” (Ecole Polytechnique Federale de Lausanne (EPFL), priority 2011, dated 2020).

Legend:
[1] = system: C2C12 myotubes; assay: Oxygen consumption in cultured C2C12 myotubes; type: cell-based
Description: Oxygen Consumption in Cultured Cells. Cellular O2 consumption was measured using a Seahorse bioscience XF24 analyzer with […] biological replicates per condition, in 24 well plates at 37° C., exactly as described (Canto et al., 2009). C2C12 were infected with an adenovirus encoding for FLAG-HA-PGC-1 and either scramble or SIRT1 shRNAs 48 h previous to O2 consumption measurements. Then myotubes were treated with 1 μM PJ34 for 48 h. In order to measure the contribution of fatty acid oxidation to global O2 consumption, total cellular O2 consumption was measured for 6 successive 2 min measurements at 5 min intervals. Then, 50 μl of etomoxir (1 M; Calbiochem, San Diego, Calif., USA) were added and, after […], 6 successive 2 min measurements were performed at 5 min intervals. The remaining O2 consumption was attributed to non-lipid substrates, while the difference with the initial O2 consumption values was considered due to fatty acid oxidation.

[2] = system: C. elegans; assay: Confocal microscopy of mitochondria in body wall muscle (pmyo-3::mito::GFP reporter); conditions: in vivo
Description: Confocal Microscopy and Image Processing Worms were immobilized with 6 mM solution of tetramisole hydrochloride (Sigma, Buchs, Switzerland) in M9 and mounted on 6% agarose pads on glass slides. Images of worms were acquired using Zeiss LSM 700 Upright confocal microscope (Carl Zeiss AG, Oberkochen, Germany) under non-saturating exposure conditions. All the snapshots were taken from the same part of C. elegans: muscles from the upper part of the worm, excluding the regions of oesophagus and vulva. For each condition multiple worms were observed and imaged. Image processing was performed with the Fiji software. One of the critical issues during the imaging process was the position of the worm, as it influences the level of background. For the uniformity of the represented images, contrast and brightness were adjusted in order, to eliminate the undesirable background signal. Neither of these manipulations was affecting the mitochondrial shape. Tracing of the mitochondrial network contour was done by the use of Gaussian blur filter followed by the application of Laplacian operator.

[3] = system: C2C12 myotubes; assay: NR uptake in C2C12 myotubes; type: in vitro ADME
[4] = system: SIRT3; assay: NR in SIRT3−/− mouse embryonic fibroblasts; type: cell-based; conditions: 0.5 mM, 24 hrs
Description: Cell Culture, Transfection, Adenoviral Infection and Mitochondrial Characterization. HEK293T, MEF and C2C12 cells were cultured in DMEM (4.5 g/l glucose, 10% FCS). PARP-1^+/+ and PARP-1^−/− MEFs were prepared as described in (Menissier-de Murcia et al., 1997). SIRT1 and MEFs were kindly provided by Fred Alt (Chea et al., 2005). SIRT3 MER were established according to standard techniques from conditional SERT3^−/− mice. […] Mitochondrial charge determination was performed as described (Bai et al., 2001) and DNA strand breaks were quantified by TUNEL assays according to the manufacturer's instructions (Millipore).
Immunoprecipitation, SDS-PAGE, Western Blotting. […] Reactions were developed by enhanced chemiluminescence (Amersham, Little Chalfont, UK), PGC-1α, FOXO1 and Ndufa9 acetylation levels were analyzed by immunoprecipitation from cellular or nuclear lysates of tissues with anti-PGC-1α (Millipore), anti-FOXO1 (Cell Signaling, Danvers, Mass., USA) and anti-Ndufa9 (Abcam) antibody followed by Western blot using an acetyl-lysine antibody (Cell Signaling) that was normalized to total PGC-1a/FOXO1/Ndufa9 levels (Lagouge et al., 2006; Rodgers et al., 2005). […] All blots were quantified by densitometry using ImageJ software. […]

Row | Structure (SMILES) | O2 consumption rates ([1]; 1 μM PJ34, 48 h) | O2 consumption with SIRT1 knock-down ([1]; SIRT1 shRNA) | substrate contribution to the increase in O2 consumption ([1]; etomoxir) | mitochondrial content in body wall muscle [2] | mitochondrial morphology in body wall muscle [2] | Km [3] [µM] | Vmax of NR uptake [3] | NAD+ levels in SIRT3−/− MEFs [4] | acetylation status of SOD2 in SIRT3−/− MEFs [4]
1 | CN(C)CC(=O)Nc1ccc2[nH]c(=O)c3ccccc3c2c1 [PJ34] | enhanced oxidative metabolism | largely blunted | combination of enhanced oxidation of lipid and non-lipid substrates | – | – | – | – | – | –
2 | NC(=O)c1ccc[n+]([C@@H]2O[C@H](CO)[C@@H](O)[C@H]2O)c1 [NR, nicotinamide riboside] | – | – | – | increase muscle mitochondrial content | affect mitochondrial morphology | 172 ± 17.6 | 204.2±20.5 pmol/mg of protein/min | increased to similar levels as in SIRT3^+/+ MEFs | unable to decrease the acetylation status of SOD2
